# Results taken from PubChem BioAssay (NCI).
#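 Here, GI50 denotes the concentration required for 50% inhibition of growth. TGI marks complete inhibition of growth.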
# How the values were obtained:
# Experiment in all cases: growth of human tumour cells (NCI), 384-well format
# HCT-15 colon = system: HCT-15 colon
# SK-MEL-28 melanoma = system: SK-MEL-28 melanoma
# KM12 colon = system: KM12 colon
# BT-549 breast = system: BT-549 breast
# SK-MEL-5 melanoma = system: SK-MEL-5 melanoma
# NCI-H322M lung = system: NCI-H322M lung
# NCI-H522 lung = system: NCI-H522 lung
# TK-10 renal = system: TK-10 renal
# OVCAR-8 ovarian = system: OVCAR-8 ovarian
# HCT-116 colon = system: HCT-116 colon
# LOX IMVI melanoma = system: LOX IMVI melanoma
# SNB-19 CNS = system: SNB-19 CNS
# HL-60(TB) leukemia = system: HL-60(TB) leukemia
# SK-OV-3 ovarian = system: SK-OV-3 ovarian
# CAKI-1 renal = system: CAKI-1 renal
# MDA-MB-231 breast = system: MDA-MB-231 breast
# HS 578T breast = system: HS 578T breast
# IGROV1 ovarian = system: IGROV1 ovarian
# A498 renal = system: A498 renal
# SN12C renal = system: SN12C renal
# M14 melanoma = system: M14 melanoma
# SF-268 CNS = system: SF-268 CNS
# NCI-H23 lung = system: NCI-H23 lung
# NCI-H460 NSCLC = system: NCI-H460 NSCLC
# ACHN renal = system: ACHN renal
# SR leukemia = system: SR leukemia
# PC-3 prostate = system: PC-3 prostate
# SNB-75 CNS = system: SNB-75 CNS
# HOP-92 NSCLC = system: HOP-92 NSCLC
# SW-620 colon = system: SW-620 colon
# MDA-MB-468 breast = system: MDA-MB-468 breast
# EKVX NSCLC = system: EKVX NSCLC
# OVCAR-5 ovarian = system: OVCAR-5 ovarian
# CCRF-CEM leukemia = system: CCRF-CEM leukemia
# UO-31 renal = system: UO-31 renal
# OVCAR-4 ovarian = system: OVCAR-4 ovarian
# U251 glioblastoma = system: U251 glioblastoma
# UACC-257 melanoma = system: UACC-257 melanoma
# NCI-H226 lung = system: NCI-H226 lung
# MCF7 breast = system: MCF7 breast
# MALME-3M melanoma = system: MALME-3M melanoma
# RXF 393 renal = system: RXF 393 renal
# A549 NSCLC = system: A549 NSCLC
# SF-295 CNS = system: SF-295 CNS
# T-47D breast = system: T-47D breast
# MDA-MB-435 melanoma = system: MDA-MB-435 melanoma
# MOLT-4 leukemia = system: MOLT-4 leukemia
# DU-145 prostate = system: DU-145 prostate
# 786-0 renal = system: 786-0 renal
# HCC-2998 colon = system: HCC-2998 colon
# HOP-62 NSCLC = system: HOP-62 NSCLC
# HT29 colon = system: HT29 colon
# NCI/ADR-RES ovarian = system: NCI/ADR-RES ovarian
# OVCAR-3 ovarian = system: OVCAR-3 ovarian
# COLO 205 colon = system: COLO 205 colon
# SF-539 CNS = system: SF-539 CNS
# K-562 leukemia = system: K-562 leukemia
# RPMI-8226 leukemia = system: RPMI-8226 leukemia
compound,measurement,setting,value
CNC(=O)c1cc(Oc2ccc3nc(N[C@@H]4CCCC[C@H]4O)sc3c2)ccn1,GI50,HCT-15 colon,34.4 µM
same,TGI,HCT-15 colon,> 100 µM
same,GI50,SK-MEL-28 melanoma,> 100 µM
same,TGI,SK-MEL-28 melanoma,> 100 µM
same,GI50,KM12 colon,> 100 µM
same,TGI,KM12 colon,> 100 µM
same,GI50,BT-549 breast,60.4 µM
same,TGI,BT-549 breast,> 100 µM
same,GI50,SK-MEL-5 melanoma,19.8 µM
same,TGI,SK-MEL-5 melanoma,42.2 µM
same,GI50,NCI-H322M lung,> 100 µM
same,TGI,NCI-H322M lung,> 100 µM
same,GI50,NCI-H522 lung,59 µM
same,TGI,NCI-H522 lung,> 100 µM
same,GI50,TK-10 renal,84.8 µM
same,TGI,TK-10 renal,> 100 µM
same,GI50,OVCAR-8 ovarian,59 µM
same,TGI,OVCAR-8 ovarian,> 100 µM
same,GI50,HCT-116 colon,53 µM
same,TGI,HCT-116 colon,> 100 µM
same,GI50,LOX IMVI melanoma,72.2 µM
same,TGI,LOX IMVI melanoma,> 100 µM
same,GI50,SNB-19 CNS,> 100 µM
same,TGI,SNB-19 CNS,> 100 µM
same,GI50,HL-60(TB) leukemia,22.2 µM
same,TGI,HL-60(TB) leukemia,> 100 µM
same,GI50,SK-OV-3 ovarian,> 100 µM
same,TGI,SK-OV-3 ovarian,> 100 µM
same,GI50,CAKI-1 renal,> 100 µM
same,TGI,CAKI-1 renal,> 100 µM
same,GI50,MDA-MB-231 breast,60 µM
same,TGI,MDA-MB-231 breast,> 100 µM
same,GI50,HS 578T breast,46.1 µM
same,TGI,HS 578T breast,> 100 µM
same,GI50,IGROV1 ovarian,> 100 µM
same,TGI,IGROV1 ovarian,> 100 µM
same,GI50,A498 renal,> 100 µM
same,TGI,A498 renal,> 100 µM
same,GI50,SN12C renal,> 100 µM
same,TGI,SN12C renal,> 100 µM
same,GI50,M14 melanoma,> 100 µM
same,TGI,M14 melanoma,> 100 µM
same,GI50,SF-268 CNS,> 100 µM
same,TGI,SF-268 CNS,> 100 µM
same,GI50,NCI-H23 lung,45.3 µM
same,TGI,NCI-H23 lung,> 100 µM
same,GI50,NCI-H460 NSCLC,48 µM
same,TGI,NCI-H460 NSCLC,> 100 µM
same,GI50,ACHN renal,> 100 µM
same,TGI,ACHN renal,> 100 µM
same,GI50,SR leukemia,10.5 µM
same,TGI,SR leukemia,23.3 µM
same,GI50,PC-3 prostate,71.3 µM
same,TGI,PC-3 prostate,> 100 µM
same,GI50,SNB-75 CNS,68.8 µM
same,TGI,SNB-75 CNS,> 100 µM
same,GI50,HOP-92 NSCLC,> 100 µM
same,TGI,HOP-92 NSCLC,> 100 µM
same,GI50,SW-620 colon,> 100 µM
same,TGI,SW-620 colon,> 100 µM
same,GI50,MDA-MB-468 breast,12.3 µM
same,TGI,MDA-MB-468 breast,45.3 µM
same,GI50,EKVX NSCLC,58.9 µM
same,TGI,EKVX NSCLC,> 100 µM
same,GI50,OVCAR-5 ovarian,> 100 µM
same,TGI,OVCAR-5 ovarian,> 100 µM
same,GI50,CCRF-CEM leukemia,39.3 µM
same,TGI,CCRF-CEM leukemia,> 100 µM
same,GI50,UO-31 renal,> 100 µM
same,TGI,UO-31 renal,> 100 µM
same,GI50,OVCAR-4 ovarian,40.3 µM
same,TGI,OVCAR-4 ovarian,> 100 µM
same,GI50,U251 glioblastoma,73.2 µM
same,TGI,U251 glioblastoma,> 100 µM
same,GI50,UACC-257 melanoma,48.4 µM
same,TGI,UACC-257 melanoma,> 100 µM
same,GI50,NCI-H226 lung,35.2 µM
same,TGI,NCI-H226 lung,> 100 µM
same,GI50,MCF7 breast,34.7 µM
same,TGI,MCF7 breast,> 100 µM
same,GI50,MALME-3M melanoma,56.2 µM
same,TGI,MALME-3M melanoma,> 100 µM
same,GI50,RXF 393 renal,25.8 µM
same,TGI,RXF 393 renal,83.2 µM
same,GI50,A549 NSCLC,> 100 µM
same,TGI,A549 NSCLC,> 100 µM
same,GI50,SF-295 CNS,41.7 µM
same,TGI,SF-295 CNS,> 100 µM
same,GI50,T-47D breast,33.4 µM
same,TGI,T-47D breast,> 100 µM
same,GI50,MDA-MB-435 melanoma,> 100 µM
same,TGI,MDA-MB-435 melanoma,> 100 µM
same,GI50,MOLT-4 leukemia,31.7 µM
same,TGI,MOLT-4 leukemia,> 100 µM
same,GI50,DU-145 prostate,> 100 µM
same,TGI,DU-145 prostate,> 100 µM
same,GI50,786-0 renal,> 100 µM
same,TGI,786-0 renal,> 100 µM
same,GI50,HCC-2998 colon,> 100 µM
same,TGI,HCC-2998 colon,> 100 µM
same,GI50,HOP-62 NSCLC,51.1 µM
same,TGI,HOP-62 NSCLC,> 100 µM
same,GI50,HT29 colon,> 100 µM
same,TGI,HT29 colon,> 100 µM
same,GI50,NCI/ADR-RES ovarian,24.2 µM
same,TGI,NCI/ADR-RES ovarian,> 100 µM
same,GI50,OVCAR-3 ovarian,> 100 µM
same,TGI,OVCAR-3 ovarian,> 100 µM
same,GI50,COLO 205 colon,> 100 µM
same,TGI,COLO 205 colon,> 100 µM
same,GI50,SF-539 CNS,89.1 µM
same,TGI,SF-539 CNS,> 100 µM
same,GI50,K-562 leukemia,35.1 µM
same,TGI,K-562 leukemia,> 100 µM
same,GI50,RPMI-8226 leukemia,18.9 µM
same,TGI,RPMI-8226 leukemia,69.1 µM
